According to article PMC9645260, “Small-molecule inhibitors of P-Rex guanine-nucleotide exchange factors” (Small GTPases, 2022):
pIC50: −log10 of the molar value.

Assays:
[1] = tested on: Rac-dependent cell responses; design: method as in PMID 22383527; conditions: lamellipodia formation and migration; cited from earlier work
P-Rex1 DHPH domain = molecular target: T1, P-Rex1 DHPH domain (Homo sapiens, UniProt Q8TCU6); assay: Mant-GTP GEF activity assay; assay type: biochemical; conditions: 10 µM
T1 construct: 100 nM EE-P-Rex1 DHPH domains (PREX-in1, compounds 2–10 and 30–128); made in house; host or cells: Sf9 cells (baculovirus)
Procedure: The mant-GTP GEF activity assay measures the binding of fluorescent 2’/3’-O-(N-Methyl-anthraniloyl)-guanosine-5’-triphosphate (mant)-GTP to Rac, making use of the spectroscopic differences between bound and free mant-GTP. P-Rex1 DHPH domain protein was diluted to 375 nM in exchange buffer (20 mM Tris, pH 7.5 RT, 50 mM NaCl, 200 mM KCl, 4 mM MgCl2, 50 μg/ml fatty-acid-free BSA). The inhibitors PREX-in1 or EHop-016 were diluted to various concentrations in exchange buffer containing 15% DMSO. 4.4 µl P-Rex1 DHPH domain protein were incubated with 1.1 µl PREX-in1 or EHop-016 for 30 min at 30°C, or were mock treated with 1.1 µl vehicle (15% DMSO). 5 μl of the P-Rex1 DHPH / inhibitor mix was then added to 10 µl of a 1.5x reaction mix containing 225 nM bacteria-derived EE-Rac1, 7.5 µM mant-GTP and 15 µM GTP in exchange buffer in a 96-well plate. Final assay concentrations were 150 nM EE-Rac1, 100 nM P-Rex1 DHPH domain, 5 μM mant-GTP, 10 µM GTP, […] fatty-acid-free BSA, 1% DMSO, and the indicated concentrations of inhibitor. Mant-GTP fluorescence was measured in real time in a PHERAstar 384-well fluorescence plate reader at 25°C for 40 min using 360 nm excitation and 440 nm emission.

HEK-293 cells = assay: Cell cycle stages by propidium iodide flow cytometry; assay type: cell-based; conditions: 24 h treatment, 10 µM
Procedure: Human embryonic kidney 293 (HEK-293) cells were grown at 37°C in a humidified 5% CO2 atmosphere in Dulbecco’s modified Eagle medium (DMEM, Gibco) supplemented with 10% foetal bovine serum (FBS), 100 units/ml penicillin and 100 µg/ml streptomycin. Cells were passaged by tryptic digest 1:4 approximately every 2 days. To measure cell cycle stages, 2 ml HEK293 cells were plated per well of a 6-well dish (Thermo Scientific, Nunc) at 10^5 cells/ml. After 24 h, the medium was replaced with fresh medium containing various concentrations of PREX-in1, as indicated, or 10 μM NSC23766, or vehicle control (0.1% DMSO), and cells were incubated for a further 24 h. The medium was removed but kept aside to recover any detached cells. Wells were washed with PBS, and cells recovered by trypsinization. Cell suspensions were pooled with the culture supernatant and centrifuged at 433 × g for 5 min at RT. Cells were washed in PBS, resuspended in ice-cold 70% ethanol/PBS, and incubated for 30 min at 4°C for fixation and permeabilization. Cells were washed once more in PBS, then stained with 50 µg/ml propidium iodide in PBS containing 100 µg/ml RNase for 30 min at 37°C. Cells were analysed by flow cytometry for the intensity of propidium iodide staining using a FACSCalibur flow cytometer. 10,000 cells were analysed per sample. Data analysis was done using FloJo software.

Tiam1 = tested on: Tiam1; design: method as in PMID 15128949; conditions: cited from earlier work
TrioN = tested on: TrioN; design: method as in PMID 15128949; conditions: cited from earlier work
full-length P-Rex1 = molecular target: T2, full-length P-Rex1 (Homo sapiens, UniProt Q8TCU6); assay: Liposome-based GEF activity assay, PIP3-stimulated full-length P-Rex1; assay type: biochemical; conditions: 200 µM, pilot experiments, EE-Rac2 substrate
T2 construct: Full-length N-terminally EE-tagged P-Rex1, P-Rex2, the P-Rex1 DH and DHPH domains and the P-Rex2 DH domain were produced in Sf9 cells; made in house; host or cells: Sf9 cells (baculovirus)
From the text: All small GTPases and GEFs used were human recombinant proteins. EE-Rac1, EE-Rac2, GST-Cdc42 or GST-RhoA were expressed in Sf9 cells by baculoviral transduction and purified using their epitope tag in their post-translationally prenylated form using Triton X-114 phase separation, essentially as previously described. Briefly, frozen pellets from a 1 litre culture of Sf9 cells transduced with high-titre baculovirus expressing the small GTPase were resuspended in ice-cold Sf9-cell lysis buffer 1 (1x PBS, 40 mM HEPES pH 7.5 at RT, 5 mM MgCl2, 10 mM EGTA, 300 µM GDP, 1 mM DTT, 200 µM PMSF, 20 μg/ml each of leupeptin, pepstatin A, aprotinin and antipain) and lysed by sonication. Triton X-114 was added (to 1% final concentration), and samples were ultracentrifuged at 118,000 × g for 50 min at 4°C. The supernatant was warmed at 37°C until cloudy (30–60 seconds) and centrifuged at 1300 × g for 2 min at 37°C. The upper phase containing non-lipid modified GTPase was discarded and replaced with ice-cold Sf9-cell lysis buffer. The warming/centrifugation steps were repeated twice and lipid-modified GTPase resuspended in ice-cold Sf9-cell lysis buffer 1 supplemented with Triton X-100 (1% final concentration), followed by ultracentrifugation at 118,000 × g for 50 min at 4°C. For EE-tagged GTPases, supernatants were incubated with anti-EE antibody covalently coupled to protein G-Sepharose beads (anti-EE beads, Onyx Pharmaceuticals) and incubated with end-over-end rotation for 90 min on ice. Beads were washed 3 times in wash buffer (PBS, 5 mM MgCl2, 1 mM DTT, 10 μM GDP, 1 mM EGTA, 0.2% Triton X-100) and 5x in elution buffer (40 mM HEPES pH 7.5, 150 mM NaCl, 5 mM MgCl2, 1 mM EGTA, 1 mM DTT, 10 µM GDP). Protein was eluted by three incubations with elution buffer containing peptide Ac-EEYMPME (Activotec, Comberton, UK) and cholate (first 1%, then twice 0.5%) for 20 min on ice. For GST-tagged GTPases, supernatants were incubated with glutathione Sepharose beads and were eluted with glutathione in the same manner. Proteins were concentrated in a YM-10 Centricon (Millipore) at 5000 × g, 4°C. Protein concentration and purity was determined by coomassie staining of SDS-PAGE gels. For use in the mant-GTP assay, EE-Rac 1 was expressed in BL21 (DE3) bacteria (NEB, C25271), by induction with 0.5 mM IPTG overnight at 18°C. Bacterial pellets from 500 ml cultures were resuspended in 20 ml bacterial lysis buffer (40 mM Hepes, pH 7.5 at 4°C, 150 mM NaCl, 1% Triton X-100, 5 mM MgCl2, 1 mM DTT, 300 μM GDP, 200 µM PMSF, and 20 μg/ml each of leupeptin, pepstatin A, aprotinin and antipain) and were lysed by sonication. 5 μg/ml DNAse and 5 μg/ml RNAse were added and the lysate incubated on ice for 10 min. […]

DOCK2 = tested on: DOCK2; design: method as in PMID 22520755; conditions: cited from earlier work

T2 sequence (Q8TCU6 whole entry, the tested form may be a part): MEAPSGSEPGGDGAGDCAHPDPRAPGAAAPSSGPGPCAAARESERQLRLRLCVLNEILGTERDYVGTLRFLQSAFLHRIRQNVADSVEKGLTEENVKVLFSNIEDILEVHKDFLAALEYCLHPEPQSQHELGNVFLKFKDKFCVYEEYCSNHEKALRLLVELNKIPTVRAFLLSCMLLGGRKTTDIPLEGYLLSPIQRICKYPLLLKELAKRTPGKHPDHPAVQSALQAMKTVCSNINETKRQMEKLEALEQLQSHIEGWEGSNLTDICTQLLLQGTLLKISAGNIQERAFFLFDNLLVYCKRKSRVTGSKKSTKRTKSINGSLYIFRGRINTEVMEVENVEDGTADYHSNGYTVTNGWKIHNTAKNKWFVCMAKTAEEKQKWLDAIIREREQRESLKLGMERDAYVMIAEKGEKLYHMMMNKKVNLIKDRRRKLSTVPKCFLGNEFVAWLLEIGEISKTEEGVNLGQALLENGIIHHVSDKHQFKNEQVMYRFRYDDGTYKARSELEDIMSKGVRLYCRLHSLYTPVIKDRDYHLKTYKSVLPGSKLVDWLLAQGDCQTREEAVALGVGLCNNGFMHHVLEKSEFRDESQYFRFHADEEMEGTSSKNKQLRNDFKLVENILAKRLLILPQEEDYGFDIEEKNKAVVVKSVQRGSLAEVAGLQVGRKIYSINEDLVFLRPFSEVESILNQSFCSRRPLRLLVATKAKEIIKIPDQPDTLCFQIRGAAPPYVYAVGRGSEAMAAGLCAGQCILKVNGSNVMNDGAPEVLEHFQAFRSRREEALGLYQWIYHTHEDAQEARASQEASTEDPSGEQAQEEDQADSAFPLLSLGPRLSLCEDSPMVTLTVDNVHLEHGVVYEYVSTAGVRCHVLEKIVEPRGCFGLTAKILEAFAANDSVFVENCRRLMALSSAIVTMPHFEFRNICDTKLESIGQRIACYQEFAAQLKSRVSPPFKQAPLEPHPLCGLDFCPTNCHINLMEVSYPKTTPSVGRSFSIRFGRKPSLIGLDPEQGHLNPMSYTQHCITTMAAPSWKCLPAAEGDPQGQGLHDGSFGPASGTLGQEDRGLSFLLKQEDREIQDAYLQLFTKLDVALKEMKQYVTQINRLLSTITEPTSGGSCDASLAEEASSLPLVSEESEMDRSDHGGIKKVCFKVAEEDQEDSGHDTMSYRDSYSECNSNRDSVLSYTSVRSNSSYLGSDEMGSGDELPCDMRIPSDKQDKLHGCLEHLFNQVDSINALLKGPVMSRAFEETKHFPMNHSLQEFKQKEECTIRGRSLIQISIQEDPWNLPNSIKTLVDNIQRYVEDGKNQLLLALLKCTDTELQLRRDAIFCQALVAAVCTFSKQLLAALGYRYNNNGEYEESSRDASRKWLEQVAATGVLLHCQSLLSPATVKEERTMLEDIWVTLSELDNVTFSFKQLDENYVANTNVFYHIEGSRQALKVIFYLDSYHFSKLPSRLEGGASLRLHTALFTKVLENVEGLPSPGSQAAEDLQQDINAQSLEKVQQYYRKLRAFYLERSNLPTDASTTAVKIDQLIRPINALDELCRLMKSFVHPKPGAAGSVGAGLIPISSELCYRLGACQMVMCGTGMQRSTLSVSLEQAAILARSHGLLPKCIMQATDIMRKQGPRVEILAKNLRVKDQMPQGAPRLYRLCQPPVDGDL
T1 sequence (Q8TCU6 49-392 limits assumed): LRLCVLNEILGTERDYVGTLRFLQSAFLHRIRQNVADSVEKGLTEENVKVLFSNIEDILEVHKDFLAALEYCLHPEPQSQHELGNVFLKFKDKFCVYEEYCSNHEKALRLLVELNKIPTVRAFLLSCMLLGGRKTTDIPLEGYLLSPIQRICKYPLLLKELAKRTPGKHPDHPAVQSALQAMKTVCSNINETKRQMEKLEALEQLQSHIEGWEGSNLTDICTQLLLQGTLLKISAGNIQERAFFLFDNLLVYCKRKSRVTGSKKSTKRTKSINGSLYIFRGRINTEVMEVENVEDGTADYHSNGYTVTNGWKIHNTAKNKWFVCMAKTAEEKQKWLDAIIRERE

Question: With `CCn1c2ccccc2c2cc(Nc3ccnc(NCCCN4CCOCC4)n3)ccc21` [EHop-016, reference compound] as the compound, how does the “IC50 for blocking Rac-dependent cell responses” value [1] read?
Answer: The value was “low micromolar”.

Question: What about the “effect on P-Rex1 DHPH-dependent mant-GTP loading of Rac1” value (P-Rex1 DHPH domain) of the same compound?
Answer: The value was “did not affect”.

Question: For `CCN(CC)CCCC(C)Nc1nc(C)cc(Nc2ccc3nc(C)cc(N)c3c2)n1` (stereo not shown) [NSC23766, reference compound], which “cell death (sub-G1 phase)” value (HEK-293 cells) is on record?
Answer: Its value is “caused cell death to a similar extent”.

Question: What about the pIC50 (Tiam1) of the same compound?
Answer: Its pIC50 is ~4.30.

Question: And the pIC50 (TrioN)?
Answer: Its pIC50 is ~4.30.

Question: What about the “effect on PIP3-stimulated Rac-GEF activity of full-length P-Rex1” value (full-length P-Rex1) of the same compound?
Answer: Its value is “did not appear to inhibit”.

Question: With `O=C1NN(c2ccccc2)C(=O)/C1=C/C=C/c1ccccc1Cl` [CPYPP] as the compound, how does the pIC50 (DOCK2) read?
Answer: The pIC50 was 4.64.
